Measurements published in a melting point compilation (Tetko et al.).

Settings: a range is the spread between reports

| melting point | Structure (SMILES) |
| --- | --- |
| 170 to 172 °C | NC(=O)c1ccc([N+](=O)[O-])cc1Cl |
| 204 to 206 °C | Cc1cc2nc[nH]c2cc1C |
| 36 to 37.8 °C | Cc1c(Cl)cccc1[N+](=O)[O-] |
| 10 to 12.3 °C | CCCCCCCCC(=O)O |
| 67 to 69.5 °C | CC(C)=CC(=O)O |
| 69 to 72 °C | COc1ccc(C=O)c(OC)c1 |
| 83 to 86 °C | c1ccc(-c2ccc3ccccc3n2)cc1 |
| -103 to -101 °C | CCCC#CCCC |
| 146 to 147 °C | NC(=O)c1c(F)cccc1F |
| -108 °C | CCCCCC(C)CC (configuration not stated) |
| -134 °C | C=C(C)C(C)CC (configuration not stated) |
| -22 to -21.5 °C | Clc1cccc(Br)c1 |
| 74 to 76 °C | Cc1ccc(C)c(O)c1 |
| 73 to 75 °C | O=[N+]([O-])c1cc(F)ccc1O |
| 156 to 158 °C | Cc1ccc(NC(=O)c2ccccc2)cc1 |
| 4 to 4.1 °C | C=CCCCCCCCCCCCCCC |
| 30 to 32 °C | CCCCCCCCCCCCCCCCCCS |
| 44.5 to 45 °C | CC(=O)Oc1cccc2ccccc12 |
| 11 to 14.5 °C | CN(C=O)c1ccccc1 |
| 29 to 33 °C | CC(=O)c1ccco1 |
| 83 to 84 °C | O=C(Cl)N(c1ccccc1)c1ccccc1 |
| -22.5 to -22 °C | C=C(C#N)C(=O)OCC |
| -43 to -42.8 °C | CCc1ccc(CC)cc1 |
| -38 to -37 °C | COc1c(F)c(F)c(F)c(F)c1F |

| melting point | Structure (SMILES) |
| --- | --- |
| -96.1 to -96 °C | C1CCSC1 |
| 189 to 191 °C | O=C(O)COc1ccccc1C(=O)O |
| 214 to 215 °C | O=C(O)c1cc(-c2ccccc2)nc2ccccc12 |
| 205 to 207 °C | CC(=O)Nc1ccc(C#N)cc1 |
| 61 to 66 °C | Clc1cccc(Cl)c1Br |
| 54 to 57 °C | COc1ccc2[nH]ccc2c1 |
| -86 to -82.5 °C | CCO[Si](OCC)(OCC)OCC |
| 220 °C | CN(C)c1cccc2c(S(N)(=O)=O)cccc12 |
| -7 to -2 °C | O=C(Cl)CCc1ccccc1 |
| 184 to 185 °C | COc1ccc(C(=O)O)cc1 |
| 97 to 100 °C | O=c1cc(-c2ccccc2)oc2ccccc12 |
| 178 to 180 °C | CC1(C)C2CC[C@@]1(C)C(=O)C2 |
| 237 to 242 °C | O=C(O)c1ccc([N+](=O)[O-])cc1 |
| -141 °C | C=CCCC=C |
| 147 to 148 °C | CC(C)(C)c1ccc(C(O)CCCN2CCC(C(O)(c3ccccc3)c3ccccc3)CC2)cc1 (configuration not stated) |
| 176 °C | Cn1c(=O)n(C)c(=O)n(C)c1=O |
| -45 to -44.8 °C | C#Cc1ccccc1 |
| 162 to 163 °C | Cc1occc(=O)c1O |
| 8 to 8.2 °C | CN1CCN(C)C1=O |
| 2 to 3.5 °C | ClC/C=C/CCl |
| -26.8 to -22 °C | Fc1ccc(Cl)cc1 |
| 114 to 117 °C | CC(=O)c1ccccc1C(=O)O |
| -37.5 to -37 °C | COc1ccccc1 |
| 244 to 247 °C | O=C(O)/C=C/c1ccccc1[N+](=O)[O-] |

| melting point | Structure (SMILES) |
| --- | --- |
| -116 to -112 °C | CC1CCC(C)C1C (configuration not stated) |
| 57 to 58 °C | CCOC(=O)c1ccc([N+](=O)[O-])cc1 |
| 18 to 19 °C | CNc1ccccc1C(=O)OC |
| 158 to 159 °C | O=C(O)c1c(F)cccc1F |
| -85 to -84.8 °C | CCCCCCC(C)CC (configuration not stated) |
| 152 to 155 °C | CC(=O)Nc1cccc([N+](=O)[O-])c1 |
| 105 to 106 °C | c1cnc2[nH]ccc2c1 |
| 71 to 73 °C | OCc1cccc(O)c1 |
| 79 to 80 °C | c1ccc2c(c1)OCCOCCOCCOCCO2 |
| -18 to -16 °C | OCCCCCO |
| 97.5 to 98 °C | OCc1c[nH]c2ccccc12 |
| 76 to 81 °C | O=C(c1ccccc1)c1cccc(Br)c1 |
| 57.5 to 58 °C | COC(=O)CCC(=O)O |
| -82 to -81.7 °C | CC(C)C(C(C)C)C(C)C |
| 78 to 81 °C | CC(=O)c1cccc([N+](=O)[O-])c1 |
| -3 to -1.2 °C | CC(=O)C(C)=O |
| 40.5 to 43 °C | CC(=O)O[Si](C)(OC(C)=O)OC(C)=O |
| 327 to 330 °C | CC1=NS(=O)(=O)c2cc(Cl)ccc2N1 |
| 33 to 36 °C | O=C(Cl)c1cccc([N+](=O)[O-])c1 |
| 43 to 44 °C | CCOc1ccccc1OCC |
| -45 to -44 °C | CCOCCOCCOCC |
| 50 to 52.5 °C | CC1(C)CC(C)(c2ccccc2)c2ccccc21 (configuration not stated) |
| 113 to 116 °C | NC(=O)c1cccc(N)c1 |
| 21 to 22 °C | c1cncnc1 |

| melting point | Structure (SMILES) |
| --- | --- |
| 165 to 166 °C | COc1ccc(C(N)=O)cc1 |
| 49 to 52.5 °C | COc1ccc(C(C)=O)c(O)c1 |
| 48 to 53 °C | N#CCc1ccc(I)cc1 |
| 181 to 186 °C | CN(C)CC(=O)O |
| -75.6 to -75 °C | C=C(C)CCC(=C)C |
| -67 to -66.5 °C | CC(C)(C)CC(C)(C)C |
| 12 to 13.5 °C | CC(=O)CCCC(=O)O |
| 43 to 44 °C | CCc1cc(C(C)(C)C)c(O)c(C(C)(C)C)c1 |
| -57 to -55.5 °C | CCCCC(C)=O |
| 211 to 213 °C | Cc1n[nH]c(=O)[nH]c1=O |
| 7.7 to 8 °C | COCC(=O)O |
| 99 to 101 °C | CC(=O)c1ccc2ccccc2c1O |
| -28 to -27.5 °C | CCc1cccc(-c2ccccc2)c1 |
| 19 to 21 °C | CCCCCCCCCCC(C)=O |
| -138 °C | CC1CC1(C)C (configuration not stated) |
| 55 to 58 °C | Nc1ccccc1I |
| 122 °C | O=C(O)c1ccoc1 |
| 65.8 to 67 °C | CCCCCCCCCCCCCCCCCCCCCCCCCCCCCC |
| -91 to -90.9 °C | ClCC1CC1 |
| 162 to 165 °C | Cc1c(C)c(C)c(Br)c(C)c1C |
| -98 to -97.5 °C | CO |
| 282 to 287 °C | N[C@@H](Cc1c[nH]cn1)C(=O)O |
| 164 to 169 °C | Cc1cc(N)c2ccccc2n1 |
| 113 to 115 °C | Oc1cc(O)c(Cl)cc1Cl |

| melting point | Structure (SMILES) |
| --- | --- |
| 20 °C | CC(C)(C)OC(=O)CCC(Cl)(Cl)Cl |
| 32.5 to 34 °C | N#CCc1cccc2ccccc12 |
| -70 to -69.5 °C | CCCCCCCCl |
| 82 to 84 °C | Cc1c(Br)cc(Br)c(O)c1Br |
| 33.2 to 37 °C | COC(=O)c1ccc(C)cc1 |
| -1.3 to 1 °C | CC(C)C(=O)c1ccccc1 |
| -12 to -11.7 °C | O=[N+]([O-])c1cc(F)ccc1F |
| 59 to 59.5 °C | OCc1ccc(Cl)cc1Cl |
| 53.8 to 58 °C | CCCCCCCCCCCCCCCCCO |
| -41 to -40.7 °C | CCCCC(O)CCC (configuration not stated) |
| 225 to 230 °C | Sc1ncc[nH]1 |
| 36.5 to 39 °C | Cc1ccc2cccnc2c1 |
| 275 to 276 °C | c1ccc(-c2nc(-c3ccccc3)c(-c3ccccc3)[nH]2)cc1 |
| -1.6 to 2 °C | OCCN1CCOCC1 |
| 65 to 65.5 °C | CCCCOc1ccc(O)cc1 |
| 52 to 54.3 °C | COC(=O)C(=O)OC |
| 199 to 200 °C | CC12CCC(C(=O)C1=O)C2(C)C (configuration not stated) |
| 130 to 132 °C | CCCCCCCCCCCC[N+](C)(C)[O-] |
| 58 to 59 °C | O=Cc1cccc([N+](=O)[O-])c1 |
| 48 to 50 °C | O=C=Nc1cccc(N=C=O)c1 |
| -130 °C | CCC1(C)CC1 |
| 69 to 70 °C | COc1cccc(OC)c1C(C)=O |
| -2 to -1.8 °C | C1=Cc2ccccc2C1 |
| 104 to 106 °C | CCCCCCCCCCCCCC(N)=O |

| melting point | Structure (SMILES) |
| --- | --- |
| 129 to 131 °C | O=C(O)CCc1ccc(O)cc1 |
| 51.5 to 52 °C | COC(=O)c1ccccc1OC(C)=O |
| 103 to 104 °C | BrC1c2ccccc2-c2ccccc21 |
| 153 to 158 °C | O=c1cc(-c2ccccc2)oc2c1ccc1ccccc12 |
| 150 °C | O=C1c2ccccc2C(=O)C1c1ccccc1 |
| 218 to 220 °C | Cc1n[nH]c(=S)[nH]c1=O |
| -90 to -89.7 °C | C#CC(C)C |
| -10 to -9.6 °C | CCCCCCCCCCCC |
| -139 °C | CCCl |
| 77 to 80 °C | CC(=O)Nc1cccc(Cl)c1 |
| 49 to 50 °C | COC(=O)c1ccc(OC)cc1 |
| -128 to -127 °C | C1CC1 |
| -138 to -137 °C | C=C(C)CC |
| 57.5 to 59 °C | O=C(O)CCCCc1ccccc1 |
| 148 to 149 °C | COc1cc(OC)c2ccc(=O)oc2c1 |
| 44 to 45.5 °C | CCN1C(=O)C=CC1=O |
| -113 °C | CCC(C)(C)CC(C)C |
| 62.5 to 65.5 °C | Cc1cc(C)cc(O)c1 |
| 87.8 to 89.5 °C | O=Cc1cccc(C=O)c1 |
| -41 to -40.6 °C | CC1CCC(=O)CC1 |
| 67.5 to 69 °C | COC(=O)c1cccc(C(=O)OC)c1 |

| Structure (SMILES) | melting point |
| --- | --- |
| Clc1cccc(-c2ccccc2)c1 | 16 to 18 °C |
| C=CC(=C)C | -146 °C |
| BrCCCCBr | -20 to -16.5 °C |
| Oc1ccc(Cl)cc1 | 41 to 44 °C |
| N#Cc1ccc([N+](=O)[O-])cc1 | 145 to 149 °C |
| N#CCC(=O)c1ccccc1 | 80.5 to 83 °C |
| O=S=O | -73 to -72 °C |
| Nc1cc(Cl)cc(Cl)c1 | 51 to 53 °C |
| C=CCBr | -119 °C |
| N#Cc1ccccc1C=O | 104 to 108 °C |
| CC(C)c1ccc(O)cc1 | 60 to 62.3 °C |
| C=C(C)C#N | -36 to -35.8 °C |
| O=C1OC(=O)c2c(Cl)c(Cl)c(Cl)c(Cl)c21 | 254 to 256 °C |
| CC(N)=S | 112 to 116 °C |
| Clc1cc(Cl)c(Cl)cc1Cl | 139 to 140 °C |
| Clc1ccc(Cl)c(Cl)c1Cl | 47 to 47.5 °C |

| Structure (SMILES) | melting point |
| --- | --- |
| N#C/C=C/c1ccccc1 | 19 to 22 °C |
| CC12CCC(=O)C=C1CCC1C2CCC2(C)C1CCC2(C)O (configuration not stated) | 163 to 164 °C |
| N#Cc1ccc(N)cc1 | 84 to 85 °C |
| Brc1ccccc1 | -31 to -30.6 °C |
| O=C(c1ccc(Cl)cc1)c1ccc(Cl)cc1 | 145 to 148 °C |
| O=C(C(F)(F)F)C(F)(F)F | -129 to -125 °C |
| c1ccncc1 | -42 to -41.6 °C |
| Cc1ccc(N=C=O)cc1N=C=O | 20 to 21 °C |
| O=C(Cl)c1cccc(C(=O)Cl)c1 | 43.5 to 44 °C |
| ClC1=C(Cl)[C@]2(Cl)[C@@H]3[C@@H]4C[C@@H]([C@H]5O[C@@H]45)[C@@H]3[C@@]1(Cl)C2(Cl)Cl | 175 to 176 °C |
| c1cc2c3c(cccc3c1)CC2 | 93.4 to 95 °C |
| ClCBr | -88 to -87.9 °C |
| CCC(=O)c1ccc(C)cc1 | 7 to 7.2 °C |
| N#Cc1cc([N+](=O)[O-])c(Cl)c([N+](=O)[O-])c1 | 141 °C |
| CCC(=O)c1ccc(Cl)cc1 | 35 to 37.3 °C |
